Values after ≈ are worked out from the molar mass of the structure shown.
Assays:
[1] = target: Tyrosine-protein kinase JAK1 (Homo sapiens, UniProt P23458); type: cell-based
physchem [2] = details: buffer, pH 7.4
[3] = target: Non-receptor tyrosine-protein kinase TYK2 (Homo sapiens, UniProt P29597); type: cell-based
Aurora kinase B = Aurora kinase B (Homo sapiens, UniProt Q96GD4)
in vitro = details: PAMPA, pH 7.4
Description: Permeability of the compound at pH 7.4 incubated for 3 hrs by HPLC based artificial membrane permeability assay

physchem [4] = details: buffer, pH 6.5
Description: Solubility of the compound in stimulated lung fluid at pH 6.5 measured after 4 hrs by HPLC-UV analysis

Chain of Tyrosine-protein kinase JAK1 (P23458 whole entry): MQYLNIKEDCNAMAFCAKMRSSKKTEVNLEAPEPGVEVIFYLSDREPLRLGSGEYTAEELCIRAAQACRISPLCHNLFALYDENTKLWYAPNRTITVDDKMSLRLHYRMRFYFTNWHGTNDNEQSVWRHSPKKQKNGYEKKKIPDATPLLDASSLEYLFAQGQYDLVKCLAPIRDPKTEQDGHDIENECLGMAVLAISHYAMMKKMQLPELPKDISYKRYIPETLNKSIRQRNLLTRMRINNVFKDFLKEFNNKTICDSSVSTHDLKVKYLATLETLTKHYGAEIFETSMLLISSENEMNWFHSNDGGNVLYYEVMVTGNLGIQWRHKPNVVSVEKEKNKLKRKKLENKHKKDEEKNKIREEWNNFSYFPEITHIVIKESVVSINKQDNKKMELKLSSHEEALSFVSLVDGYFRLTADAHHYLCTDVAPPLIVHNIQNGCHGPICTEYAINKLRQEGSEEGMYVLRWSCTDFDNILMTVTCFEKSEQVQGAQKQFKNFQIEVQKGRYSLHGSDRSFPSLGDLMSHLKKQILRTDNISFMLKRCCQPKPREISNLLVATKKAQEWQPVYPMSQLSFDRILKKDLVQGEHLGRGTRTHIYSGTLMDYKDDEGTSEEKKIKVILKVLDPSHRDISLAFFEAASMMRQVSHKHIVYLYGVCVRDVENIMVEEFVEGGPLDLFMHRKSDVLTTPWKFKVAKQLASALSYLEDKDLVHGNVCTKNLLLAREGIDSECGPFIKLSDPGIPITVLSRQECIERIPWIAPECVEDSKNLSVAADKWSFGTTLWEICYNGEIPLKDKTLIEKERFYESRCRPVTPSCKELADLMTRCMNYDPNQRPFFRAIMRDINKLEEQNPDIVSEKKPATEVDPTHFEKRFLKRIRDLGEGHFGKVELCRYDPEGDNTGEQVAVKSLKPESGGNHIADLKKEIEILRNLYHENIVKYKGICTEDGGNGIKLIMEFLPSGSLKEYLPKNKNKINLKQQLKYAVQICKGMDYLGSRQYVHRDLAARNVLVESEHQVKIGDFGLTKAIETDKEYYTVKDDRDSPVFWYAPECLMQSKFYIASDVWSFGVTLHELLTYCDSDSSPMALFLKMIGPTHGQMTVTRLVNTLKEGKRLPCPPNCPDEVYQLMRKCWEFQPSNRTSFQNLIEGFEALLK
Chain of Non-receptor tyrosine-protein kinase TYK2 (P29597 whole entry): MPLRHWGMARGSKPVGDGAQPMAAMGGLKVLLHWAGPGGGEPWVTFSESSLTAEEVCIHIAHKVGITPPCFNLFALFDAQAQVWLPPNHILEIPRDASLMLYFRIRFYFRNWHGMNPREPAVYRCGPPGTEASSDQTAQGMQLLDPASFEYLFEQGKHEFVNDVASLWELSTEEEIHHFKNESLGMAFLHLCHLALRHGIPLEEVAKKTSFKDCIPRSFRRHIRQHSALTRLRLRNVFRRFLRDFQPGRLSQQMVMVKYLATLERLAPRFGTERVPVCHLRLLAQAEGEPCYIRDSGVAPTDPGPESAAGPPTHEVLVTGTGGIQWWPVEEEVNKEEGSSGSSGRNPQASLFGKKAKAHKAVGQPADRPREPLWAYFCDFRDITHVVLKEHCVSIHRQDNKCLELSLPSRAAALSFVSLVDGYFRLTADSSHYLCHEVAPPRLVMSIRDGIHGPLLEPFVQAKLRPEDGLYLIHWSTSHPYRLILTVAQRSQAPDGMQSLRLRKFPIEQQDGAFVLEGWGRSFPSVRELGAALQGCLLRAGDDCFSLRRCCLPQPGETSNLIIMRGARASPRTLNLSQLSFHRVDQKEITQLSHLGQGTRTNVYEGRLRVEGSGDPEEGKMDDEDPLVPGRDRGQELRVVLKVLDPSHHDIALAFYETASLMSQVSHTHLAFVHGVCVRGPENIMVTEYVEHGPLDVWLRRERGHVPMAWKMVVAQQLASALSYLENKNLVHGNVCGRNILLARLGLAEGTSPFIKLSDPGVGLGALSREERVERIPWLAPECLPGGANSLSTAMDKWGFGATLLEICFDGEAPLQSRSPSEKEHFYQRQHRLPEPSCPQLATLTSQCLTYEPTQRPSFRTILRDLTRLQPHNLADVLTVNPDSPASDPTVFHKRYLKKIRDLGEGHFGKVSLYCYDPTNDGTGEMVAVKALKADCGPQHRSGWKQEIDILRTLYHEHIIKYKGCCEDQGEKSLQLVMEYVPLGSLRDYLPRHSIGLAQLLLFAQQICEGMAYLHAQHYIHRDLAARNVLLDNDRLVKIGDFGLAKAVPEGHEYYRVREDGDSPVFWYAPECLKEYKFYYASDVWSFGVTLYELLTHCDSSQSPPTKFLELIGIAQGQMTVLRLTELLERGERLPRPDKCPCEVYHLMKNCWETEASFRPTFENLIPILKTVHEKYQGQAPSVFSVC
Chain of Aurora kinase B (Q96GD4 whole entry): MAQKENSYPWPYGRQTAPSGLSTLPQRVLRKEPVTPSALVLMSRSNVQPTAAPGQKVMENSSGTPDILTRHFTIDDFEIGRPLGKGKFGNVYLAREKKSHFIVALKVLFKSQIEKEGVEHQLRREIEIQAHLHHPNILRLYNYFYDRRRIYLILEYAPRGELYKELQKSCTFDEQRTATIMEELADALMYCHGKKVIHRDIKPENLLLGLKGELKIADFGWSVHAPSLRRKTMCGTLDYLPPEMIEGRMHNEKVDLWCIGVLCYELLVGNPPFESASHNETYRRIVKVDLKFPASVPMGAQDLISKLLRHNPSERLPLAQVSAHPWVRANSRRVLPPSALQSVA

| Compound | IC50 [1] [nM] | solubility kinetic at 1 h (physchem [2]) [µM] | IC50 [3] [nM] | IC50 (Aurora kinase B) [nM] | Papp at 3 h (in vitro) [×10⁻⁶ cm/s] | solubility at 4 h (physchem [4]) [µg/mL] |
| --- | --- | --- | --- | --- | --- | --- |
| Cn1cc(Nc2ncc3cccc(OC4CCNCC4)c3n2)cn1 | 79.4 | 523 (≈ 170 µg/mL) | – | – | – | – |
| COc1cccc2cnc(Nc3cnn(C)c3)nc12 | 631 | 539 (≈ 138 µg/mL) | 631 | – | – | – |
| CC(=O)N1CCC(Oc2cccc3cnc(Nc4cnn(C)c4)nc23)CC1 | 251 | 557 (≈ 204 µg/mL) | 316 | – | – | – |
| CCc1cc(O)c(F)cc1-c1cc(NCCNC)c2nc(N)ncc2c1 | – | – | – | 12600 | 1.2 | – |
| CCc1cc(O)c(F)cc1-c1cc(NCCO)c2nc(N)ncc2c1 | – | – | – | – | 12 | 44 (≈ 129 µM) |
| CC(=O)N1CCC(Nc2cccc3cnc(Nc4cnn(C)c4)nc23)CC1 | 126 | 404 (≈ 148 µg/mL) | – | – | – | – |
| COc1cc(-c2ccc(O)cc2)cc2cnc(Nc3cnn(C)c3)nc12 | 0.501 | 11 (≈ 3.82 µg/mL) | – | – | – | – |
